Measured values as given in ChEMBL document CHEMBL3399982, “Azachalcones: a new class of potent polyphenol oxidase inhibitors” (Bioorg Med Chem Lett, 2015).

Tests used:
[1] = target: T1, Tyrosinase (Agaricus bisporus) (UniProt O42713); experiment: Inhibition of mushroom tyrosinase assessed as inhibition of L-DOPA oxidase activity; details: concentration not given here
T1 sequence (whole entry): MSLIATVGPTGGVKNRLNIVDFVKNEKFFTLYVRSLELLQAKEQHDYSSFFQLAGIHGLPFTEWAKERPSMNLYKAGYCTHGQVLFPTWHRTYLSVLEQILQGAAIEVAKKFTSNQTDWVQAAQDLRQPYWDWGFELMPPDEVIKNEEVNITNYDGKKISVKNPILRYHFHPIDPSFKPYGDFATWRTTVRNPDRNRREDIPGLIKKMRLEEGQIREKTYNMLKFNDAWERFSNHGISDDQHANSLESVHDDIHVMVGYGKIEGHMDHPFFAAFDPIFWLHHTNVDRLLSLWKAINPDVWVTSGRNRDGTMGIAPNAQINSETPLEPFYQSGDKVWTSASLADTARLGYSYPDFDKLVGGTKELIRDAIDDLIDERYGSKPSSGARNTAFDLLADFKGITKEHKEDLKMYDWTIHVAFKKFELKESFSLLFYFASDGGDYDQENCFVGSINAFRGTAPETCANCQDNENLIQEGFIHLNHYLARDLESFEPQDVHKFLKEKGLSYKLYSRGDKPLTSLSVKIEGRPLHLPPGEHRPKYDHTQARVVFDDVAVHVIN

[2] = target: T2, Tyrosinase (Agaricus bisporus, UniProt O42713); experiment: Competitive inhibition of mushroom tyrosinase assessed as inhibition of L-DOPA oxidase activity
T2 sequence (O42713 whole entry): T1 sequence (whole entry)

[3] = target: T2, Tyrosinase

Row | Compound | inhibition [1] | IC50 [2] | Ki [3]
1 | Oc1ccccc1C(O)/C=C/c1ccncc1 (configuration not stated) | 57.2% | 2300 nM | 8100 nM
2 | CN(C)c1ccc(/C=C/C(=O)c2ccccn2)cc1 | 39.7% |  | 
3 | O=C(/C=C/c1cccc([N+](=O)[O-])c1)c1ccccc1O | 42.2% |  | 
4 | CN(C)c1ccc(/C=C/C(=O)c2ccccc2O)cc1 | 27.2% |  | 
5 | COc1ccc(/C=C/C(=O)c2ccccn2)c(OC)c1 | 42.7% |  | 
6 | O=C(/C=C/c1cccc([N+](=O)[O-])c1)c1ccccc1 | 18% |  | 

The remaining lines, values ahead:

Row | inhibition [1] | IC50 [2] | Ki [3] | Compound
7 | 8.9% |  |  | O=C(/C=C/c1ccc2ccccc2n1)c1ccccc1O
8 | 39.7% |  |  | O=C(/C=C/c1ccncc1)c1ccccc1O
9 | 80.2% | 1700 nM | 2620 nM | Oc1ccccc1C(O)/C=C/c1ccccn1 (configuration not stated)
10 | 56.8% |  |  | O=C(/C=C/c1ccccn1)c1ccccc1O
11 | 49.3% |  |  | O=C(/C=C/c1cccnc1)c1ccccc1O
12 | 34% |  |  | O=C(/C=C/c1ccccn1)c1ccccc1
13 | 12.3% |  |  | O=C(/C=C/c1cnc2ccccc2c1)c1ccccc1O
